Measured values as given in patent publication US20070149481A1, “N,n-bridged, nitrogen-substituted carbacyclic indolocarbazoles as protein kinase inhibitors” (priority 2002, published 2007).

How the values were obtained:
Assay type in all cases: biochemical
Settings in all cases: 10 μM compound
[1] = molecular target: T1, PKA (catalytic subunit, bovine heart) (Bos taurus, UniProt P00517); assay: Protein Kinase A inhibition assay (PKA)
T1 construct: PKA (catalytic subunit, bovine heart, Calbiochem 539486); purchased Calbiochem 539486; host or cells: bovine heart (tissue-derived)
Procedure: (§1) The ERK2 kinase activity assay utilizes a radioactivity-based format in a 96-well PCR plate with radioactive readout. The ERK2 activity was assayed in a 25 μL assay mixture containing 25 mM HEPES (pH 7.0), 250 μM ATP, 1 mM MgCl2, 1 mM DTT, 2% DMSO, 150 ng/mL Myelin Basic Protein (MBP, Sigma M-1891), and 13.6 ng/mL His tagged ERK2 (specific activity=38.1 nmol/min*mg). Compounds were screened for inhibition of the ERK2 kinase activity at a concentration of 10 μM. The kinase reaction was allowed to proceed at 37° C. for 30 minutes, then reaction was stopped by the addition of 5 μl of 0.5M EDTA (pH 8). 15 μL of each solution were then spotted onto the corresponding square of a filtermat (8×12 glassfibre mat 90×120 mm, PE-Wallac 1450-421). The filtermat was allowed to dry and washed once with 10% TCA, 2% PPA, 500 mM NaCl each for 30 minutes at rt. Two further washings in 10% TCA and 2% PPA for 30 minutes were performed, then a final 30 minute wash in 99% EtOH at rt was done and the filtermat was air dried. The dry filtermat was then placed in a sample bag with a Meltilex sheet (Melt-on scintillator sheets 73×109 mm, PE-Wallac 1450-441 for filtermat A) over the filtermat. The bag was trimmed to fit into the microplate heatsealer (PE-Wallac 1495-021). The heatsealer is used to melt the Meltilex on the filtermat. The bag containing the filtermat and the melted Meltilex was then placed into a filter cassette and counted using the Microbeta Jet Scintillation and Luminescence Counter PE-Wallac 1450.
The PKA kinase activity assay utilizes a radioactivity-based format in a 96-well PCR plate with radioactive readout. The PKA activity was assayed in a 25 μL assay mixture containing 25 mM HEPES (pH 7.0), 250 μM ATP, 10 mM MgCl2, 1 mM DTT, 1 mM EDTA (pH 8). 2% DMSO. 250 ng/mL Histone H2B (Roche 223 514), and 2 ng/mL PKA (catalytic subunit, bovine heart, Calbiochem 539486, specific activity=1170 pmol/min*μg). Compounds were screened for inhibition of the PKA kinase activity at a concentration of 10 μM. The kinase reaction was allowed to proceed at 37° C. for 30 minutes, then the reaction was stopped by addition of 5 μL of 0.5M EDTA (pH 8). The remainder of the protocol is identical to the one reported for ERK2.

PKC (rat brain) = assay: Protein Kinase C inhibition assay (PKC)
Procedure: as §1
The PKC kinase activity assay utilizes a radioactivity-based format in a 96-well PCR plate with radioactive readout. The PKC activity was assayed in a 25 μL assay mixture containing 25 mM HEPES (pH 7.0), 250 μM ATP, 10 mM MgCl2, 1 mM DTT, 1 mM EDTA (pH 8), 2 mM CaCl2, 2% DMSO, 250 ng/mL Histone H1 (Roche 1 004 875), and 165 ng/mL PKC (rat brain, Calbiochem 539494, specific activity=1600 nmol/min*mg). Compounds were screened for inhibition of the PKC kinase activity at a concentration of 10 μM. The kinase reaction was allowed to proceed at 37° C. for 30 minutes, then the reaction was stopped by addition of 5 μL of 0.5M EDTA (pH 8). The remainder of the protocol is identical to the one reported for ERK2.

GSK3β = molecular target: T2, GSK3β (Homo sapiens, UniProt P49841); assay: Glycogen Synthase Kinase 3β inhibition assay (GSK3β)
T2 construct: purchased Upstate Discovery
Procedure: The GSK3β kinase activity assay utilizes a radioactivity-based format in a 96-well PCR plate with radioactive readout. The GSK3 β activity was assayed in a 25 μL assay mixture containing 8 mM HEPES (pH 7.0), 250 μM ATP, 0.2 mM EDTA (pH 8), 2% DMSO, 250 ng/mL Myelin Basic Protein (MBP, Sigma M-1891), and 12 ng/mL GSK3β (Upstate Discovery, specific activity=607 nmol/min*GS2 peptide, concentration of 6.05 mg/mL). Compounds were screened for inhibition of the GSK3β kinase activity at a concentration of 10 μM. The kinase reaction was allowed to proceed at 37° C. for 30 minutes, then the reaction was stopped by addition of 5 μL of 0.5M EDTA (pH 8).

His tagged ERK2 = His tagged ERK2 (Homo sapiens, UniProt P28482); assay: Extracellular signal Regulated Kinase 2 inhibition assay (ERK2), radioactive filtermat format
Procedure: as §1

Chain of His tagged ERK2 (P28482 whole entry): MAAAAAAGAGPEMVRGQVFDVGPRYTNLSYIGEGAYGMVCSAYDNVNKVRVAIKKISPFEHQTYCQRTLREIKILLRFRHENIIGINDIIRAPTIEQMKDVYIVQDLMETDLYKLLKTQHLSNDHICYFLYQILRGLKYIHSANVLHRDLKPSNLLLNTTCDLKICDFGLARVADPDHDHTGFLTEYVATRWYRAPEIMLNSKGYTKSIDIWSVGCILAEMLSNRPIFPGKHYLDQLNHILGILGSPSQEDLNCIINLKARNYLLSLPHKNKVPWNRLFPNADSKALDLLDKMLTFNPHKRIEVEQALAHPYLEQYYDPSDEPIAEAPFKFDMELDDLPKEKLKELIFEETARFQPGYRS
T2 sequence (P49841 whole entry, species assumed): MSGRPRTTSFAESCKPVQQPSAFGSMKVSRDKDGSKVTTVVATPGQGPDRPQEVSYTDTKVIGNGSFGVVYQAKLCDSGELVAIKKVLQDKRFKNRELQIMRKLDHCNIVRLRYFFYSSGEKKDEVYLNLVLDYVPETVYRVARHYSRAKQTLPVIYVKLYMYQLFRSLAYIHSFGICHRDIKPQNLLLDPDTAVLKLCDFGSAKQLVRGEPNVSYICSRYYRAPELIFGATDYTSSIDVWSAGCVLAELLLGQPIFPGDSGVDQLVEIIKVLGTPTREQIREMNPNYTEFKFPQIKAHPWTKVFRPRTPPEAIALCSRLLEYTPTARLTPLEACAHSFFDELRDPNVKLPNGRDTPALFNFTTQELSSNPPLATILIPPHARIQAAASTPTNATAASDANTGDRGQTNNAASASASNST

Row | Compound | inhibition at 10 µM [1] [%] | % Inhibition PKC (PKC (rat brain)) [%] | inhibition at 10 µM (GSK3β) [%] | inhibition at 10 µM (His tagged ERK2) [%] | % Inhibition PKA [1] | % Inhibition GSK3β (GSK3β) | % Inhibition ERK2 (His tagged ERK2) [%]
1 | COc1ccc(CN2C(=O)c3c(c4c5ccccc5n5c4c4c3c3ccccc3n4C3CC5[C@@H](N4CCOCC4)C3)C2=O)cc1 (stereo partly shown) [Compound 26] | < 10 | 10.18 | < 10 | 67.6 | – | – | –
2 | CCOC(=O)[C@]1(N)CC2CC1n1c3ccccc3c3c4c(c5c6ccccc6n2c5c31)C(=O)NC4=O (stereo partly shown) [Compound 6] | 59.4 | 83.97 | 94.2 | 61.3 | – | – | –
3 | O=C1NC(=O)c2c1c1c3ccccc3n3c1c1c2c2ccccc2n1C1CC3CC1N1CCCCC1 (stereo not shown) [Compound 29] | – | 46.63 | – | – | 18.38% | 54.14% | 56.44
4 | COc1ccc(CN2C(=O)c3c(c4c5ccccc5n5c4c4c3c3ccccc3n4C3CC5[C@]4(C3)NC(=O)N(C)C4=O)C2=O)cc1 (mixture of isomers) [Compound 14] | 16.6 | 34.01 | < 10 | 46.6 | – | – | –
5 | O=C(O)c1cn([C@@H]2C3CC([C@H]2O)n2c4ccccc4c4c5c(c6c7ccccc7n3c6c42)C(=O)NC5=O)nn1 (mixture of isomers) [Compound 18] | 11.5 | 21.55 | 75.9 | < 10 | – | – | –
6 | COC(=O)[C@]1(N)CC2CC1n1c3ccccc3c3c4c(c5c6ccccc6n2c5c31)C(=O)NC4=O (stereo partly shown) [Compound 8] | 70.8 | 59.42 | 96.9 | 50.2 | – | – | –
7 | N[C@@H]1C2CC([C@H]1O)n1c3ccccc3c3c4c(c5c6ccccc6n2c5c31)C(=O)NC4=O (mixture of isomers) [Compound 16] | 84.8 | 93.34 | 98.5 | 98.2 | – | – | –
8 | NC(=O)[C@]1(N)C[C@@H]2CC1n1c3ccc(O)cc3c3c4c(c5c6cc(O)ccc6n2c5c31)C(=O)NC4=O (mixture of isomers) [Compound 12] | 99.9 | 96.63 | 100 | 98.1 | – | – | –
9 | COc1ccc(CN2C(=O)c3c(c4c5ccccc5n5c4c4c3c3ccccc3n4C3CC(NCCO)C5C3)C2=O)cc1 (stereo not shown) [Compound 25] | – | 15.94 | – | – | NA (NA = <10% inhibition) | NA (NA = <10% inhibition) | 33.51
10 | NC1(C(=O)NCCO)CC2CC1n1c3ccccc3c3c4c(c5c6ccccc6n2c5c31)C(=O)N(CCO)C4=O (stereo not shown) [Compound 37] | – | 53.92 | – | – | 19.81% | 80.46% | 35.09
11 | CNC1(C#N)CC2CC1n1c3ccccc3c3c4c(c5c6ccccc6n2c5c31)C(=O)N(Cc1ccc(OC)cc1)C4=O (stereo not shown) [Compound 27] | – | 32.18 | – | – | 30.19% | 18.28% | 63.52
12 | N[C@@]1(C(=O)O)CC2CC1n1c3ccccc3c3c4c(c5c6ccccc6n2c5c31)C(=O)NC4=O (stereo partly shown) [Compound 7] | 62.5 | 85.71 | 99 | 94.7 | – | – | –

The remaining lines, values ahead:

Row | inhibition at 10 µM [1] [%] | % Inhibition PKC (PKC (rat brain)) [%] | inhibition at 10 µM (GSK3β) [%] | inhibition at 10 µM (His tagged ERK2) [%] | % Inhibition PKA [1] | % Inhibition GSK3β (GSK3β) | % Inhibition ERK2 (His tagged ERK2) [%] | Compound
13 | < 10 | 28.47 | < 10 | 63.8 | – | – | – | CCOC(=O)[C@]1(N)CC2CC1n1c3ccccc3c3c4c(c5c6ccccc6n2c5c31)C(=O)N(Cc1ccc(OC)cc1)C4=O (stereo partly shown) [Compound 35]
14 | – | 83.88 | – | – | 86.43% | 95.80% | 72.93 | CCNC(=O)C1(N)CC2CC1n1c3ccccc3c3c4c(c5c6ccccc6n2c5c31)C(=O)NC4=O (stereo not shown) [Compound 41]
15 | 17.6 | 49.73 | < 10 | 30.9 | – | – | – | COc1ccc(CN2C(=O)c3c(c4c5ccccc5n5c4c4c3c3ccccc3n4C3CC5[C@@H](N)C3)C2=O)cc1 (mixture of isomers) [Compound 1]
16 | 26.1 | 75.80 | 19.3 | 39.9 | – | – | – | O=C1NC(=O)c2c1c1c3ccccc3n3c1c1c2c2ccccc2n1C1CC3C[C@@H]1N1CCOCC1 (mixture of isomers) [Compound 3]
17 | – | 29.04 | – | – | NA (NA = <10% inhibition) | NA (NA = <10% inhibition) | 44.61 | CCCCNC1CC2CC1n1c3ccccc3c3c4c(c5c6ccccc6n2c5c31)C(=O)N(Cc1ccc(OC)cc1)C4=O (stereo not shown) [Compound 30]
18 | 68.4 | 90.78 | 78.2 | 65.3 | – | – | – | CN[C@H]1CC2CC1n1c3ccccc3c3c4c(c5c6ccccc6n2c5c31)C(=O)NC4=O (mixture of isomers) [Compound 2]
19 | < 10 | 28.19 | 25.6 | 48.7 | – | – | – | COc1ccc(CN2C(=O)c3c(c4c5ccccc5n5c4c4c3c3ccccc3n4C3CC5[C@](N)(C#N)C3)C2=O)cc1 (stereo partly shown) [Compound 28]
20 | 95.3 | 90.75 | 99.2 | 93.5 | – | – | – | CNC(=O)[C@]1(N)CC2CC1n1c3ccccc3c3c4c(c5c6ccccc6n2c5c31)C(=O)NC4=O (mixture of isomers) [Compound 10]
21 | 13.2 | 13.67 | < 10 | 24.7 | – | – | – | COc1ccc(CN2C(=O)c3c(c4c5ccccc5n5c4c4c3c3ccccc3n4C3CC5[C@]4(C3)NC(=O)NC4=O)C2=O)cc1 (mixture of isomers) [Compound 13]
22 | < 10 | 96.75 | 12.1 | < 10 | – | – | – | COC(=O)c1cn([C@@H]2C3CC([C@H]2O)n2c4ccccc4c4c5c(c6c7ccccc7n3c6c42)C(=O)NC5=O)nn1 (mixture of isomers) [Compound 17]
23 | – | 21.91 | – | – | NA (NA = <10% inhibition) | NA (NA = <10% inhibition) | 42.42 | COc1ccc(CN2C(=O)c3c(c4c5ccccc5n5c4c4c3c3ccccc3n4C3CC(N(C)C)C5C3)C2=O)cc1 (stereo not shown) [Compound 31]
24 | 89.6 | 78.10 | 98.5 | 94.1 | – | – | – | N#C[C@]1(N)CC2CC1n1c3ccccc3c3c4c(c5c6ccccc6n2c5c31)C(=O)NC4=O (mixture of isomers) [Compound 4]
25 | – | 65.10 | – | – | 21.80% | 82.71% | 73.44 | COc1ccc(CN2C(=O)c3c(c4c5ccccc5n5c4c4c3c3ccccc3n4C3CC5C(N)(C(=O)O)C3)C2=O)cc1 (stereo not shown) [Compound 36]
